The values below are quoted from earlier work in patent US7189730B2, “A2A adenosine receptor antagonists” (CV Therapeutics, Inc., priority 2001, dated 2007).

SMILES strings stand for the structures.

Series [1] relates to experimentally induced cataleptic responses. As to conditions: in vivo.
Series [2] has as its system haloperidol-induced catalepsy. As to conditions: rat; Mandhane et al. 1997.
In series [3] the test system is Parkinson's patients.

On to `CCCn1c(=O)c2c(nc(/C=C/c3ccc(OC)c(OC)c3)n2C)n(CCC)c1=O` [KF 17837], for which the “effect on experimentally induced cataleptic responses” value in series [1] is “ameliorates”.
With `N[C@@H](Cc1ccc(O)c(O)c1)C(=O)O` [L-DOPA], the “effect on haloperidol-induced catalepsy” value in series [2] is “block”.
For `Cn1c(=O)c2[nH]cnc2n(C)c1=O` [theophylline], the “improvement of symptoms in Parkinson's patients” value in series [3] is listed as “significant improvement of symptoms”.
